Measurements: patent publication US12691101B2, “Compound and method for preventing or treating of respiratory diseases comprising the same as an active ingredient” (YONSEI UNIVERSITY, UNIVERSITY - INDUSTRY FOUNDATION (UIF), priority 2019, dated 2026)

Tests used:
mouse pendrin (mPDS) = target: T1, mouse pendrin (mPDS) (Mus musculus, UniProt Q9R155); experiment: Mouse pendrin-mediated Cl^−/I^− exchange activity in CHO-K1 cells; format: cell-based
T1 construct: expressed in transfected cells; host or cells: CHO-K1
Description: (§1) (A) The inhibition of mouse pendrin (mPDS)-mediated Cl^−/I^− exchange activity by F56 was measured in CHO-K1 cells (mean±S.E., n=5). The indicated concentration of F56 was pretreated for 10 minutes. (B) Summary of dose-response for inhibition of the human pendrin (hPDS)-mediated (closed circle, FIG. (a), C) and mPDS-mediated (open circle) Cl^−/I^− exchange activity. (C-F) Representative traces of intracellular pH in CHO-K1 cells expressing SLC26A3, SLC26A6, SLC26A7 and SLC26A9 were shown. The application of Cl^− free solution induced intracellular alkalization by Cl^−/HCO3^− exchange. The indicated concentration of F56 was pretreated for 10 minutes. (G) the effect of F56 (100 μM) on the CFTR chloride channel activity was measured in FRT cells expressing human CFTR. The CFTR current was activated by 20 μM forskolin and was inhibited by 10 μM CFTRinh-172. (H) The effect of F56 (100 μM) on the AN01 chloride channel activity was measured in FRT cells expressing human AN01. Before 10 minutes prior to AN01 activation by 100 μM ATP, F56 was added. (Right) Peak current summary (mean±S.E., n=3). (I) The effect of F56 on the hERG (Kv11.1) potassium channel activity was measured in HEK293T cells expressing human Kv11.1 (mean±S.E., n=4). […] (J) The effect of F56 on the 5-HT2A channel activity was measured in FRT cells expressing human 5-HT2A (mean±S.E., n=4). […]

tracheal smooth muscle = experiment: Tracheal contraction in rat tracheal ring; details: 30 μM after carbachol-induced contraction
Description: All experiments were performed using 4-week-old SD male rats. The experimental protocol was approved by the Animal Ethics Committee of Yonsei University. The rats were sacrificed and tracheal strips were separated. After the connective tissue was separated, the organ was cut into 3 mm long rings. The organ was mounted for tension recording under 1 g tension and equilibrated for 1 hour in an organ bath containing 25 mL of oxygenated physiological solution. The solution was gassed successively with 95% 02 and 5% CO2 at 37° C. After 1 hours of stabilization, 0.3 μM carbachol (CCh) was used to induce a sustained contraction reaction in the organ bath. Once the sustained tension was established, F56 (30 μM) and forskolin (10 μM) and IBMX (100 μM) were applied to the bath. The organ contraction was measured using FORT 10G converter (World Precision Instruments, Sarasota, FL, USA) and PowerLab 4/35 (AD Instruments, Castle Hill, Australia). Data were recorded and analyzed using Labchart Pro 7 (AD Instruments).

Serum T3 and T4 in mice = format: in vivo, mouse; details: 10 mg/kg/day for 1 week
Description: (§2) The negative effect of F56 was examined by i.p administering of F56 10 mg/kg to female balb/c mice every 24 hours for 7 days. In 24 hours after the last administration, the hearing of mice was measured and serum was obtained. According to the manufacturer's protocol, the total serum level of triiodothyronine (T3) or thyroxine (T4) using a mouse ELISA kit (Calbiotech, T3043T-100 or T4044T-100).

[1] = Auditory brainstem response (ABR) hearing threshold in mice; format: in vivo, mouse; details: 10 mg/kg/day for 1 week
Description: as §2
The hearing level was measured in each mouse by measuring ABR threshold using an auditory-evoking potential workstation and BioSig software (Tucker-Davis Technologies, Alachua, FL, USA). The output from the speaker was calibrated using PCB 377C10 microphone (PCB Piezotronics, Inc. New York, NY, USA) and found to be within ±4 dB over the tested frequency range. After anesthetizing the mice, each ear was stimulated with an ear probe sealed inside the ear canal. The body temperature of the mice was maintained at 38° C. with an isothermal heating water-pad. The intensity of the click sound decreased from 70 dB SPL to 10 dB SPL with a 5-dB decrease. The mean value of ABR was calculated and the auditory threshold was defined as the lowest ABR response until wave I of ABR was no longer visually discernible.

human 5-HT2A = target: T2, human 5-HT2A (Homo sapiens, UniProt P28223); experiment: 5-HT2A activity in FRT cells; format: cell-based; details: pretreated 10 minutes
T2 construct: expressed in transfected cells; host or cells: FRT cells co-expressing ANO1(abc) and YFP-F46L/H148Q/I152L
Description: as §1

T1 sequence (Q9R155 whole entry): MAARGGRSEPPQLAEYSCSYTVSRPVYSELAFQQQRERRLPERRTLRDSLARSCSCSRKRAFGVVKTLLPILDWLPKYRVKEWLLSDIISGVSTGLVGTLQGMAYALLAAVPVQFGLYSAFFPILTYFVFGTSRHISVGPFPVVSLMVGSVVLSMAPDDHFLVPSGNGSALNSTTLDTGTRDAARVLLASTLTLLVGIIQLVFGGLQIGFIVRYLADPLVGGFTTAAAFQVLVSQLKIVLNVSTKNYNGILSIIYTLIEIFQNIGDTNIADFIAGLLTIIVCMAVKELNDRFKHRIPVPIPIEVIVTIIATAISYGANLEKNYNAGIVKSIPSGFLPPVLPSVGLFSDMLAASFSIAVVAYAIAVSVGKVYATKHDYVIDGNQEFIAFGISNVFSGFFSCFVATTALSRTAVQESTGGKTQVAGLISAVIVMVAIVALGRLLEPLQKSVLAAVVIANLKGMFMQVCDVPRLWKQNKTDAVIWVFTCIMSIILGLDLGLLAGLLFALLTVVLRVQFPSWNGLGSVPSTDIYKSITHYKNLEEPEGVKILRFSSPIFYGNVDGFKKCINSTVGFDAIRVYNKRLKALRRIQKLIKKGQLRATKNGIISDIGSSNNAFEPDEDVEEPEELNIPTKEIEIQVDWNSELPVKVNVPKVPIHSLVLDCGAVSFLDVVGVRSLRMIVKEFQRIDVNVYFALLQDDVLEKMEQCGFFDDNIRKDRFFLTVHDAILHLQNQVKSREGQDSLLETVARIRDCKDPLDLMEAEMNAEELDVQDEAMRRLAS

Structure (SMILES): CC(C)(C)c1ccc(C2=NC(=Cc3cccs3)C(=O)O2)cc1 [F56, 2-(4-(tert-butyl)phenyl)-4-(thiophen-2-ylmethylene)oxazol-5(4H)-one]
- inhibition of mouse versus human pendrin-mediated exchange (mouse pendrin (mPDS)): almost the same efficacy
- effect on tracheal smooth muscle (tracheal smooth muscle): did not affect
- T3 and T4 plasma level (Serum T3 and T4 in mice): not changed
- hearing threshold [1]: not changed
- effect on 5-HT2A activity (human 5-HT2A): not affected
